Source: the supplement of paper PMC10307832

Columns and labels:
Assay in all cases: relative viability (nuclei count vs DMSO), 5 days (fraction); higher = more cells survive
[1] = compound: CCCS(=O)(=O)Nc1ccc(F)c(C(=O)c2c[nH]c3ncc(-c4ccc(Cl)cc4)cc23)c1F [Vemurafenib] + COc1cccc2cc(-c3nc([C@H]4CC[C@H](C(=O)O)CC4)n4ncnc(N)c34)[nH]c12 [OSI-027] (partner 0.5 µM)
Procedure, shortened: (§1)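 The day after seeding in 1536-well plates, lung cancer cell lines were treated by pin tool with a single drug, or with a fixed anchor-drug dose together with five library-drug doses (not always all listed) in √10 steps. After 5 days, a combined fix-and-stain solution (final 0.05% Triton X-100, 1% formaldehyde, 1 ug/ml Hoechst) was added. Nuclei counted on 4× images gave relative viability as treated counts over vehicle counts, reported as the median of duplicate plates.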

[2] = compound: CCCS(=O)(=O)Nc1ccc(F)c(C(=O)c2c[nH]c3ncc(-c4ccc(Cl)cc4)cc23)c1F [Vemurafenib] + C[C@]1(O)C[C@@H](c2nc(-c3ccc4ccc(-c5ccccc5)nc4c3)c3c(N)nccn32)C1 [Linsitinib] (partner 1 µM)
Procedure, shortened: as §1

[3] = compound: COc1cccc2cc(-c3nc([C@H]4CC[C@H](C(=O)O)CC4)n4ncnc(N)c34)[nH]c12 [OSI-027] + CS(=O)(=O)N1CCN(Cc2cc3nc(-c4cccc5[nH]ncc45)nc(N4CCOCC4)c3s2)CC1 [Pictilisib] (partner 1 µM)
Procedure, shortened: as §1

[4] = compound: Cc1nc(NC(=O)N2CCC[C@H]2C(N)=O)sc1-c1ccnc(C(C)(C)C(F)(F)F)c1 [Alpelisib] + Cc1cc(Nc2cc(N3CCN(C)CC3)nc(Sc3ccc(NC(=O)C4CC4)cc3)n2)n[nH]1 [Tozasertib] (partner 0.1 µM)
Procedure, shortened: as §1

| Cell Line | relative viability ([1]; first compound 0.03162 µM) | relative viability ([1]; first compound 0.1 µM) | relative viability ([1]; first compound 1 µM) | relative viability ([2]; first compound 0.03162 µM) | relative viability ([2]; first compound 0.1 µM) | relative viability ([2]; first compound 1 µM) | relative viability ([3]; first compound 0.01 µM) | relative viability ([3]; first compound 0.03162 µM) | relative viability ([3]; first compound 0.1 µM) | relative viability ([3]; first compound 0.3162 µM) | relative viability ([3]; first compound 1 µM) | relative viability ([4]; first compound 0.04 µM) | relative viability ([4]; first compound 0.1265 µM) | relative viability ([4]; first compound 0.4 µM) | relative viability ([4]; first compound 1.265 µM) | relative viability ([4]; first compound 4 µM) | relative viability ([1]; first compound 0.3162 µM) | relative viability ([2]; first compound 0.3162 µM) |
| --- | --- | --- | --- | --- | --- | --- | --- | --- | --- | --- | --- | --- | --- | --- | --- | --- | --- | --- |
| NCI-H1395 | 0.606 | 0.651 | 0.659 | 0.948 | 1.02 | 1.13 | 0.559 | 0.705 | 0.514 | 0.458 | 0.554 | 0.823 | 0.695 | 0.743 | 0.616 | 0.735 |  |  |
| NCI-H1437 | 0.857 | 0.85 | 0.875 | 0.972 | 0.959 | 0.871 | 0.359 | 0.4 | 0.282 | 0.222 | 0.214 | 0.41 | 0.394 | 0.417 | 0.336 | 0.306 | 0.855 | 0.918 |
| NCI-H1651 | 0.733 | 0.725 | 0.829 | 0.869 | 1.09 | 1.09 | 0.538 |  | 0.504 | 0.464 | 0.282 | 0.636 | 0.651 | 0.708 | 0.653 | 0.607 | 0.698 | 1.02 |
| NCI-H1666 | 0.845 | 0.802 | 0.929 | 0.853 |  | 0.841 | 0.365 | 0.369 | 0.537 | 0.27 | 0.257 | 0.668 | 0.63 | 0.636 | 0.519 | 0.528 | 0.98 | 0.922 |
| NCI-H1734 | 0.583 | 0.568 | 0.507 | 0.859 | 0.847 | 0.808 | 0.455 | 0.45 | 0.491 | 0.337 | 0.264 | 0.289 |  | 0.299 | 0.224 | 0.205 | 0.49 | 0.759 |
| NCI-H1755 | 0.696 | 0.687 | 0.632 | 0.946 | 0.889 | 0.91 | 0.412 | 0.392 | 0.346 | 0.306 | 0.281 | 0.615 | 0.508 | 0.629 | 0.438 | 0.434 | 0.586 | 0.978 |
| NCI-H1793 | 0.274 |  | 0.3 | 0.877 |  | 0.897 | 0.421 | 0.329 | 0.276 | 0.222 | 0.179 | 0.275 | 0.383 | 0.312 | 0.169 | 0.188 | 0.316 | 0.893 |
| NCI-H1915 | 0.585 | 0.639 | 0.533 | 1.05 | 1 | 1.04 | 0.947 | 0.988 | 0.78 | 0.716 | 0.572 | 0.421 | 0.381 | 0.491 | 0.387 | 0.392 | 0.471 | 1.05 |
| NCI-H1944 | 0.395 | 0.285 | 0.352 | 1.17 | 0.872 | 1.15 | 0.369 | 0.349 | 0.32 | 0.287 | 0.247 | 0.251 | 0.226 | 0.267 | 0.218 | 0.171 | 0.336 | 1.33 |
| NCI-H1975 | 0.647 | 0.631 | 0.564 | 1 | 0.962 | 1.05 | 0.279 | 0.236 | 0.312 | 0.178 | 0.218 | 0.726 | 0.655 | 0.755 | 0.542 | 0.29 | 0.4 | 0.725 |
| NCI-H1993 | 0.523 |  | 0.494 | 0.668 |  | 0.746 | 0.808 | 0.906 | 0.86 | 0.798 | 0.691 | 0.621 | 0.505 | 0.542 | 0.511 | 0.515 | 0.607 | 0.882 |
| NCI-H2009 | 0.606 | 0.483 | 0.325 | 1.19 | 1.03 | 1.06 | 0.885 | 0.729 | 0.7 | 0.46 | 0.405 | 0.729 | 0.708 | 0.768 | 0.696 | 0.752 | 0.389 | 1.09 |
| NCI-H2023 | 0.316 | 0.293 | 0.316 | 0.655 | 0.552 | 0.666 | 0.23 | 0.229 | 0.181 | 0.155 | 0.0973 | 0.36 | 0.35 | 0.348 | 0.215 | 0.166 | 0.408 | 0.831 |
| NCI-H2085 | 0.645 | 0.37 | 0.637 | 0.862 | 0.626 | 1.01 | 0.436 | 0.367 | 0.483 | 0.33 | 0.323 | 0.825 | 0.718 | 0.907 | 0.762 | 0.746 | 0.663 | 0.797 |
| NCI-H2087 | 0.481 | 0.565 | 0.514 | 0.882 | 0.94 | 0.868 | 0.794 | 0.787 | 0.686 | 0.523 | 0.329 | 0.256 | 0.294 | 0.305 | 0.218 | 0.167 |  |  |
| NCI-H2126 | 0.606 | 0.591 | 0.651 | 0.804 | 0.699 | 0.681 | 0.519 | 0.487 | 0.455 | 0.419 | 0.407 | 0.879 | 0.826 | 0.809 | 0.627 | 0.584 | 0.856 | 0.757 |
| NCI-H2228 | 0.548 | 0.634 | 0.474 | 0.819 | 0.587 | 0.587 | 0.412 | 0.281 | 0.474 |  | 0.249 | 0.224 | 0.173 | 0.231 | 0.204 | 0.139 | 0.634 | 0.773 |
| NCI-H2347 | 0.436 | 0.37 | 0.367 | 0.941 | 1.01 | 0.964 | 0.559 | 0.589 | 0.411 | 0.324 | 0.313 | 0.649 | 0.582 | 0.682 | 0.39 | 0.361 | 0.577 | 0.76 |
| NCI-H2405 | 0.611 | 0.637 | 0.621 | 0.952 | 0.776 | 0.983 | 0.406 | 0.345 | 0.292 | 0.228 | 0.242 | 0.725 | 0.68 | 0.825 | 0.682 | 0.625 |  |  |
| NCI-H3122 | 0.932 | 0.893 | 0.899 | 1 | 0.895 | 1.13 | 0.603 | 0.584 | 0.513 | 0.317 | 0.258 | 0.334 | 0.387 | 0.35 | 0.255 | 0.263 | 1.04 | 1.01 |
| PC-3 [JPC-3] | 0.698 |  | 0.731 | 0.909 |  | 1.03 | 0.68 | 0.675 | 0.697 | 0.62 | 0.521 | 0.898 | 0.873 | 0.968 | 0.84 | 0.806 | 0.724 | 1.02 |
| PC-14 | 0.822 |  | 0.767 | 0.93 |  | 0.995 | 0.526 | 0.719 | 0.722 | 0.544 | 0.171 | 0.588 | 0.612 | 0.655 | 0.44 | 0.543 | 0.741 | 0.922 |
| RERF-LC-KJ | 0.651 | 0.454 | 0.632 | 0.833 | 0.86 | 0.923 | 0.508 | 0.542 | 0.492 | 0.393 | 0.344 | 0.466 | 0.455 | 0.572 | 0.363 | 0.349 | 0.533 | 0.924 |
| SK-LU-1 | 0.315 | 0.342 | 0.269 | 0.93 | 0.958 | 1.03 | 0.529 | 0.462 | 0.355 | 0.272 | 0.287 | 0.347 | 0.289 | 0.372 | 0.256 | 0.216 | 0.245 | 0.915 |
| SK-MES-1 | 0.56 | 0.456 | 0.444 | 1.06 | 0.892 | 1.07 | 0.323 | 0.362 | 0.333 | 0.278 | 0.252 | 0.937 | 0.901 | 1.03 | 0.745 | 0.89 | 0.548 | 1.03 |
| SW 1573 | 0.582 | 0.591 | 0.464 | 0.791 | 0.886 | 0.795 | 0.466 | 0.436 | 0.458 | 0.357 | 0.205 | 0.172 | 0.149 | 0.175 | 0.151 | 0.166 | 0.564 | 0.935 |
